Measured values: EP4722195A1, “PH-SENSITIVE CATIONIC LIPID AND LIPID NANOPARTICLES” (National University Corporation Hokkaido University, priority 2023, dated 2024)

Assays:
liver [1] = experiment: Fluc activity in the liver of mice administered Fluc mRNA-loaded lipid nanoparticles; format: in vivo, BALB/c mice; details: for Fluc activity in the liver at 6, 24, and 48 hours after administration: Example 28, Fig. 7, TxT-5-5A12β versus TxT-5-5A14 nanoparticles, 50/3/47/1.5 (mol%)
Protocol: Lipid nanoparticles were administered to mice by intravenous injection into the tail vein using a 27G needle. Unless otherwise specified, BALB/c mice (4 to 5 weeks old, female) were used.
First, BALB/c mice (female, 4 weeks old) were intravenously injected with lipid nanoparticles encapsulating Fluc mRNA (Fluc mRNA-loaded lipid nanoparticles) at a dose of 0.1 mg mRNA/kg. Six hours after intravenous injection, the mice were euthanized, each tissue was collected, frozen in liquid nitrogen, and stored at -80°C. The tissues were homogenized in passive lysis buffer (manufactured by Promega) using a bead-type cell disruptor (Micro Smash MS-100R, manufactured by TOMY Seiko). Tissue debris was removed by centrifugation, and the supernatant was collected. Fluc activity in the supernatant was measured using the Luciferase Assay System (E1500, manufactured by Promega) according to the manufacturer's protocol. Luminescence was measured using a luminometer (Luminescencer-PSN, manufactured by ATTO). Protein concentration was determined using a commercially available assay kit (BCA Protein Assay Kit, manufactured by Pierce). Fluc activity was expressed as relative light units (RLU) per mg of protein.
Subsequently, lipid nanoparticles encapsulating Fluc mRNA prepared using TxT-5-5A10, TxT-5-5A12, TxT-5-5A12β, TxT-5-5A14, and TxT-5-5A16 were administered to mice to evaluate luciferase expression levels (Fluc activity) in various tissues. Specifically, each Fluc mRNA-loaded lipid nanoparticle was administered to Balb/c mice at a dose of 0.1 mg mRNA/kg. Six hours after administration, the mice were euthanized, and their organs were collected to measure Fluc activity (RLU/mg protein) (N = 2 or 4).

[2] = Apparent pKa of lipid nanoparticles (TNS)
Protocol: The apparent pKa of the lipid nanoparticles was measured using p-toluenesulfonic acid (TNS). First, TNS (final concentration: 0.75 µM) and lipid nanoparticles (final concentration: 30 µM) were mixed in a buffer (200 mL) adjusted to each pH (pH 3.5 to 9.5). As the buffer, 20 mM citrate buffer, 20 mM sodium phosphate buffer, or 20 mM Tris-HCl buffer containing 130 mM NaCl was used. The fluorescence intensity of the prepared mixture was measured using a fluorescence spectrophotometer (Varioskan Lux, manufactured by Thermo Fisher Scientific) with the settings of λex=321 nm and λem=447 nm. Among the measured values, the highest value and the lowest value were set as 100% and 0% ionization degrees, respectively, and the pH showing a 50% ionization degree was calculated as the apparent pKa. The content ratio (%) of cationically charged pH-sensitive cationic lipid was calculated using the Henderson-Hasselbalch equation.

[3] = Average particle size and polydispersity index of lipid nanoparticles (dynamic light scattering); format: physicochemical
Protocol: The average particle size (number average value), ζ-average particle size, and polydispersity index (PdI) of the lipid nanoparticles in PBS(-) (pH 7.4), and the zeta potential in 10 mM HEPES buffer (pH 7.4) were measured using an analyzer "Zetasizer Nano ZS ZEN3600" (manufactured by Malvern) utilizing dynamic light scattering.

[4] = Encapsulation rate of lipid nanoparticles (Ribogreen); format: physicochemical
Protocol: The encapsulation rate of the lipid nanoparticles was determined by measuring the amount of encapsulated nucleic acid (mRNA) using Ribogreen (manufactured by Life Technologies), which is an RNA intercalator. The mRNA amount was quantified based on a calibration curve prepared from a series of diluted mRNA solutions at known concentrations.
Specifically, 10 mM HEPES buffer (pH 7.4), 10 w/v% Triton X-100, and Ribogreen were mixed at 978.8 µL, 20 µL, and 1.25 µL per 10 wells, respectively, to obtain a Triton(+) buffer. A Triton(-) buffer was obtained in replacing Triton X-100 with 10 mM HEPES buffer (pH 7.4). 100 µL/well of the sample was added to a black 96-well plate for fluorescence measurement, and 100 µL/well of Triton(+) buffer or Triton(-) buffer was added. After the plate was gently shaken on a shaking incubator (SI-300, manufactured by AS ONE) (700 rpm, 30 seconds), the fluorescence intensity of each well was measured using a microplate reader (VARIOSKAN LUX, manufactured by Thermo Fisher Scientific) (wavelength Ex/Em=500 nm/525 nm), and the nucleic acid encapsulation rate (%) was calculated.

liver [5] = experiment: EGFP expression in liver tissue sections of mice administered EGFP mRNA-loaded lipid nanoparticles (confocal microscopy); format: in vivo, Balb/c mice; details: for fluorescence of EGFP in the liver tissues / gene expression in hepatocytes: Example 27, Fig. 6, EGFP mRNA-loaded lipid nanoparticles TxT/DSPC/chol/PEG-DMG=50/3/47/1.5 (mol%), 24 hours post-administration
Protocol: Subsequently, each EGFP mRNA-loaded lipid nanoparticle was administered to Balb/c mice at a dose of 0.2 mg mRNA/kg. At 23 hours and 50 minutes post-administration, fluorescently labeled lectin (DyLight-649 Lycopersicon (Tomato) Lectin) was intravenously injected via the tail vein at 40 µg/mouse to fluorescently label vascular endothelial cells. At 24 hours after administration of the lipid nanoparticles, the mice were euthanized, and their livers were collected to prepare tissue sections. For nuclear staining, the tissue sections were immersed in a nuclear staining solution (1 µg/mL Hoechst 33342 dissolved in PBS(-)), cooled on ice, and incubated for at least 30 minutes in the dark. The stained tissue sections were then observed using a confocal laser scanning microscope. Subsequently, in the same manner as Example 26, each EGFP mRNA-loaded lipid nanoparticle was administered to Balb/c mice. At 23 hours and 50 minutes post-administration, fluorescently labeled lectin was administered. At 24 hours after administration of the lipid nanoparticles, the mice were euthanized, and their livers were collected to prepare tissue sections. Each tissue section was observed using a confocal laser scanning microscope. In the figure, the upper panels show fluorescence images of EGFP, and the lower panels show fluorescence images of vascular endothelial cells (fluorescently labeled lectin).

[6] = Table 1, apparent pKa of Fluc mRNA-loaded lipid nanoparticles, TxT/DSPC/chol/PEG-DMG=50/15/35/1.5 (mol%)
[7] = Table 3, Fluc mRNA-loaded lipid nanoparticles, TxT/DSPC/chol/PEG-DMG=50/3/47/1.5 (mol%)
[8] = Table 1, Fluc mRNA-loaded lipid nanoparticles, TxT/DSPC/chol/PEG-DMG=50/15/35/1.5 (mol%)
[9] = Table 5, EGFP mRNA-loaded lipid nanoparticles, TxT/DSPC/chol/PEG-DMG=50/3/47/1.5 (mol%), total flow rate 3.0 mL/min
[10] = Table 6 (Example 28), Fluc mRNA-loaded lipid nanoparticles, TxT/DSPC/chol/PEG-DMG=50/3/47/1.5 (mol%)
[11] = Table 7, hEPO mRNA-loaded lipid nanoparticles, TxT/DSPC/chol/PEG-DMG=50/3/47/1.5, SM-102/DSPC/chol/PEG-DMG=50/10/40/1.5 (mol%)
[12] = Table 8 (Example 32), lipid nanoparticles for TTR-targeted genome editing, Cas9-mRNA and TTR-gRNA 1:2 (N/P = 6.0), TxT/DSPC/chol/PEG-DMG = 50/3/47/1.5 (mol%)
[13] = Table 4, Fluc mRNA-loaded lipid nanoparticles, TxT-5-5A14/DSPC/chol/PEG-DMG=50/3/47/1.5, SM-102, ALC-0315 or MC3/DSPC/chol/PEG-DMG=50/10/40/1.5 (mol%)
[14] = Table 9 (Example 33), lipid nanoparticles for TTR-targeted genome editing, Cas9-mRNA and TTR-gRNA 1:2 (N/P = 6.0), TxT-5-5A14/DSPC/chol/PEG-DMG = 50/3/47/1.5 (mol%)
[15] = Table 10 (Example 34), lipid nanoparticles for PCSK9-targeted genome editing, Cas9-mRNA and PCSK9-gRNA 1:2 (N/P = 6.0), TxT-5-5A14/DSPC/chol/PEG-DMG = 50/3/47/1.5 (mol%)

CCCCCCC(CCCC)CNC(=O)CCCC(=O)OCC(COC(=O)CCCC(=O)NCC(CCCC)CCCCCC)(COC(=O)CCCC(=O)NCC(CCCC)CCCCCC)NC(=O)CCN1CCCCC1 (stereo not drawn) [TxT-5-5A12β, 2-(((5-((2-butyloctyl)amino)-5-oxopentanoyl)oxy)methyl)-2-(3-(piperidin-1-yl)propanamido)propane-1,3-diyl bis(5-((2-butyloctyl)amino)-5-oxopentanoate)]
Fluc activity in the liver at 6, 24, and 48 hours after administration (liver [1]; N = 3): comparable levels of gene expression at all time points
pKa [2, 6]: 4.90
pKa [2, 7]: 6.53
average particle diameter, comparison among TxT lipids ([3]; Example 32, Table 8, lipid nanoparticles for TTR-targeted genome editing): largest
Pdl [3, 8]: 0.08
number average particle size [3, 8]: 82.8 nm
ζ-average particle size [3, 8]: 111.9 nm
Pdl [3, 7]: 0.08
number average particle size [3, 7]: 72.8 nm
ζ-average particle size [3, 7]: 96.0 nm
Pdl [3, 9]: 0.05
number average particle size [3, 9]: 81.9 nm
ζ-average particle size [3, 9]: 104.0 nm
Pdl [3, 10]: 0.06
number average particle size [3, 10]: 71.2 nm
ζ-average particle size [3, 10]: 92.0 nm
Pdl [3, 11]: 0.10
number average particle size [3, 11]: 66.9 nm
ζ-average particle size [3, 11]: 88.9 nm
Pdl [3, 12]: 0.02
number average particle size [3, 12]: 71.3 nm
ζ-average particle size [3, 12]: 87.8 nm
mRNA concentration [4, 8]: 0.024 µg/µL
mRNA encapsulation rate [4, 8]: 97.0%
mRNA concentration [4, 7]: 0.023 µg/µL
mRNA encapsulation rate [4, 7]: 99.5%
mRNA concentration [4, 9]: 0.016 µg/µL
mRNA encapsulation rate [4, 9]: 99.1%
mRNA concentration [4, 10]: 0.020 µg/µL
mRNA encapsulation rate [4, 10]: 98.0%
mRNA concentration [4, 11]: 0.017 µg/µL
mRNA encapsulation rate [4, 11]: 99.5%
mRNA concentration [4, 12]: 0.412 µg/µL
mRNA encapsulation rate [4, 12]: 99.1%
fluorescence of EGFP in the liver tissues (liver [5]): fluorescence of EGFP was observed
gene expression in hepatocytes (liver [5]): notably high levels of gene expression

CCCCCCCN(CCCCCCC)C(=O)CCCC(=O)OCC(COC(=O)CCCC(=O)N(CCCCCCC)CCCCCCC)(COC(=O)CCCC(=O)N(CCCCCCC)CCCCCCC)NC(=O)CCN1CCCCC1 [TxT-5-5A14, 2-(((5-(diheptylamino)-5-oxopentanoyl)oxy)methyl)-2-(3-(piperidin-1-yl)propanamido)propane-1,3-diyl bis(5-(diheptylamino)-5-oxopentanoate)]
Fluc activity (liver), comparison among TxT lipids (liver [1]; Example 24, Fig. 3A, TxT/DSPC/chol/PEG-DMG=50/3/47/1.5 (mol%), 0.1 mg mRNA/kg, six hours): highest Fluc activity
Fluc activity in the liver compared to lipid nanoparticles comprising other cationic lipids (SM-102, ALC-0315, MC3) (liver [1]; Example 25, Fig. 4, TxT-5-5A14 50/3/47/1.5, comparators 50/10/40/1.5 (mol%), 0.1 mg mRNA/kg, six hours, N = 3): significantly higher Fluc activity
Fluc activity in the liver at 6, 24, and 48 hours after administration (liver [1]; N = 3): comparable levels of gene expression at all time points
pKa [2, 6]: 4.99
pKa [2, 7]: 6.46
pKa [2, 13]: 6.53
Pdl [3, 8]: 0.11
number average particle size [3, 8]: 72.4 nm
ζ-average particle size [3, 8]: 106.2 nm
Pdl [3, 7]: 0.08
number average particle size [3, 7]: 78.9 nm
ζ-average particle size [3, 7]: 101.0 nm
Pdl [3, 13]: 0.08
number average particle size [3, 13]: 82.4 nm
ζ-average particle size [3, 13]: 113.8 nm
Pdl [3, 9]: 0.06
number average particle size [3, 9]: 80.9 nm
ζ-average particle size [3, 9]: 106.0 nm
Pdl [3, 10]: 0.09
number average particle size [3, 10]: 79.6 nm
ζ-average particle size [3, 10]: 107.7 nm
Pdl [3, 11]: 0.04
number average particle size [3, 11]: 76.6 nm
ζ-average particle size [3, 11]: 103.4 nm
Pdl [3, 12]: 0.05
number average particle size [3, 12]: 66.4 nm
ζ-average particle size [3, 12]: 82.2 nm
Pdl [3, 14]: 0.10
number average particle size [3, 14]: 67.7 nm
ζ-average particle size [3, 14]: 91.8 nm
Pdl [3, 15]: 0.10
number average particle size [3, 15]: 73.6 nm
ζ-average particle size [3, 15]: 99.4 nm
mRNA concentration [4, 8]: 0.025 µg/µL
mRNA encapsulation rate [4, 8]: 98.8%
mRNA concentration [4, 7]: 0.022 µg/µL
mRNA encapsulation rate [4, 7]: 98.6%
mRNA concentration [4, 13]: 0.022 µg/µL
mRNA encapsulation rate [4, 13]: 99.4%
mRNA concentration [4, 9]: 0.023 µg/µL
mRNA encapsulation rate [4, 9]: 99.0%
mRNA concentration [4, 10]: 0.021 µg/µL
mRNA encapsulation rate [4, 10]: 98.2%
mRNA concentration [4, 11]: 0.022 µg/µL
mRNA encapsulation rate [4, 11]: 99.3%
mRNA concentration [4, 12]: 0.467 µg/µL
mRNA encapsulation rate [4, 12]: 96.5%
mRNA concentration [4, 14]: 0.037 µg/µL
mRNA encapsulation rate [4, 14]: 99.1%
mRNA concentration [4, 15]: 0.311 µg/µL
mRNA encapsulation rate [4, 15]: 97.1%
GFP expression in cell types of the liver (liver [5]; Example 26, Fig. 5, EGFP mRNA-loaded lipid nanoparticles 50/3/47/1.5 (mol%), 0.2 mg mRNA/kg, 24 hours after administration): GFP expression was observed not only in hepatocytes but also in vascular endothelial cells
fluorescence of EGFP in the liver tissues (liver [5]): fluorescence of EGFP was observed
gene expression in hepatocytes (liver [5]): notably high levels of gene expression
